Test system: HGADFN003 cells
Experiment: Ki67 immunofluorescence of HGADFN003 cells
Type: cell-based, human
Conditions: for Relative percentage of Ki67 positive cells: Fig. 5b, Mock 32, 39, 45, P=0.0148; for Ki67 positive cells: HGADFN003, Extended Data Fig. 10e
Procedure: Immunofluorescence was performed as described previously. Cells were plated on cover slips in 12-well plates, left overnight before the treatment. Cells were fixed in 1% formaldehyde in culture medium for 10 min at 37 °C and permeabilized with 0.2% Triton X-100 in PBS for 10 min at room temperature. Cells were washed twice in PBS and blocked for 1 h with 5% BSA in PBS and then incubated with primary antibodies at 4 °C overnight, washed three times in PBS and incubated with secondary antibodies for 1 h at room temperature. Cell nuclei were counterstained with a 500 nM concentration of 4,6-diamidino-2-phenylindole (DAPI) (Sigma). Images were acquired by a fluorescence microscope (OLYMPUS FV-1000, Carl Zeiss LSM880 or Leica DMi8) and analyzed with software NIS-Elements AR v.5.0.1 (Nikon), FLUOVIEW v.4.2b (OLYMPUS), ZEN v.2.3 SP1 (Carl Zeiss) and Leica Application Suite X v.3.6.0.24 (Leica). Cells were quantified by investigators who were blinded to the identity of the analyzed cell.

H-YGRKKRRQRRRYNLRSRTVLCGTCGQPADKASASGSGAQSPQNCSIM-OH (cysteines drawn unpaired) [UPCP, unique progerin C-terminal peptide]
Relative percentage of Ki67 positive cells (HGADFN003, replicate 1): 54% | Relative percentage of Ki67 positive cells (HGADFN003, replicate 2): 62% | Relative percentage of Ki67 positive cells (HGADFN003, replicate 3): 68% | Ki67 expression (FTI-277/UPCP comparison, words) (HGADFN003): increasing expression of BUBR1, CyclinA2 and Ki67 | Ki67 positive cells (replicate 1): 65% | Ki67 positive cells (replicate 2): 55% | Ki67 positive cells (replicate 3): 72% | Ki67 positive staining (HGPS cells): increased Ki67 positive staining
